Assay results as given in patent publication US6977262B2, “Dihydropyrazolopyridine compounds and pharmaceutical use thereof” (Mitsubishi Pharma Corporation, priority 2001, dated 2005).

SMILES	melting point
CCCC1=C(C(=O)OCC)C(c2[nH]cnc2C)c2c[nH]nc2N1 (centres unmarked) [Example 236, Ethyl 4,7-dihydro-4-(4-methyl-1H-imidazol-5-yl)-6-propyl-2H-pyrazolo[3,4-b]pyridine-5-carboxylate]	219 to 220 °C
CCCC1=C(C(=O)OCC)C(c2nccn2C)c2c[nH]nc2N1 (centres unmarked) [Example 237, Ethyl 4,7-dihydro-4-(1-methyl-1H-imidazol-2-yl)-6-propyl-2H-pyrazolo[3,4-b]pyridine-5-carboxylate]	209 °C
CCCC1=C(C(=O)OCC)C(c2cnc[nH]2)c2c[nH]nc2N1 (centres unmarked) [Example 238, Ethyl 4,7-dihydro-4-(1H-imidazol-5-yl)-6-propyl-2H-pyrazolo[3,4-b]pyridine-5-carboxylate]	200 °C
CCCCC1=C(C(=O)OCC)C(c2cccc3nonc23)c2c[nH]nc2N1 (centres unmarked) [Example 239, Ethyl 4-(2,1,3-benzoxadiazol-4-yl)-6-butyl-4,7-dihydro-2H-pyrazolo[3,4-b]pyridine-5-carboxylate]	213 °C
N#CC1=C(c2cccs2)Nc2n[nH]cc2C1c1ccccc1Cl (centres unmarked) [Example 241, 4-(2-Chlorophenyl)-5-cyano-4,7-dihydro-6-(thiophen-2-yl)-2H-pyrazolo[3,4-b]pyridine]	174 °C
COc1ccccc1C1C(C#N)=C(c2cccs2)Nc2n[nH]cc21 (centres unmarked) [Example 242, 5-Cyano-4,7-dihydro-4-(2-methoxyphenyl)-6-(thiophen-2-yl)-2H-pyrazolo[3,4-b]pyridine]	215 °C
CSc1ccccc1C1C(C#N)=C(c2cccs2)Nc2n[nH]cc21 (centres unmarked) [Example 243, 5-Cyano-4,7-dihydro-4-(2-methylthiophenyl)-6-(thiophen-2-yl)-2H-pyrazolo[3,4-b]pyridine]	222 °C
N#CC1=C(c2cccs2)Nc2n[nH]cc2C1c1ccccc1[N+](=O)[O-] (centres unmarked) [Example 244, 5-Cyano-4,7-dihydro-4-(2-nitrophenyl)-6-(thiophen-2-yl)-2H-pyrazolo[3,4-b]pyridine]	165 °C
N#CC1=C(c2cccs2)Nc2n[nH]cc2C1c1cccc2nsnc12 (centres unmarked) [Example 245, 4-(2,1,3-Benzothiadiazol-4-yl)-5-cyano-4,7-dihydro-6-(thiophen-2-yl)-2H-pyrazolo[3,4-b]pyridine]	254 °C
N#CC1=C(c2cccs2)Nc2n[nH]cc2C1c1cccc2ccccc12 (centres unmarked) [Example 246, 5-Cyano-4,7-dihydro-4-(naphthalen-1-yl)-6-(thiophen-2-yl)-2H-pyrazolo[3,4-b]pyridine]	214 °C
N#CC1=C(c2cccs2)Nc2n[nH]cc2C1c1cccc(Cl)c1Cl (centres unmarked) [Example 247, 5-Cyano-4-(2,3-dichlorophenyl)-4,7-dihydro-6-(thiophen-2-yl)-2H-pyrazolo[3,4-b]pyridine]	232 °C
Cc1ccccc1C1C(C#N)=C(c2ccccc2)Nc2n[nH]cc21 (centres unmarked) [Example 248, 5-Cyano-4,7-dihydro-4-(2-methylphenyl)-6-phenyl-2H-pyrazolo[3,4-b]pyridine]	246 °C
Cc1ccccc1C1C(C#N)=C(c2cccs2)Nc2n[nH]cc21 (centres unmarked) [Example 249, 5-Cyano-4,7-dihydro-4-(2-methylphenyl)-6-(thiophen-2-yl)-2H-pyrazolo[3,4-b]pyridine]	276 °C
N#CC1=C(CO)Nc2n[nH]cc2C1c1ccccc1Cl (centres unmarked) [Example 252, 4-(2-Chlorophenyl)-5-cyano-4,7-dihydro-6-hydroxymethyl-2H-pyrazolo[3,4-b]pyridine]	205 to 210 °C (dec.)
CCOC(=O)/C=C/C1=C(C#N)C(c2ccccc2Cl)c2c[nH]nc2N1 (stereo not drawn) [Example 253, 4-(2-Chlorophenyl)-5-cyano-4,7-dihydro-6-(trans-2-ethoxycarbonylethenyl)-2H-pyrazolo[3,4-b]pyridine]	240 to 243 °C (dec.)
CCOC(=O)CCC1=C(C#N)C(c2ccccc2Cl)c2c[nH]nc2N1 (centres unmarked) [Example 254, 4-(2-Chlorophenyl)-5-cyano-6-(2-ethoxycarbonylethyl)-4,7-dihydro-2H-pyrazolo[3,4-b]pyridine]	172 to 174 °C
N#CC1=C(CO)Nc2n[nH]cc2C1c1cccc2nonc12 (centres unmarked) [Example 257, 4-(2,1,3-Benzoxadiazol-4-yl)-5-cyano-4,7-dihydro-6-hydroxymethyl-2H-pyrazolo[3,4-b]pyridine]	215 to 220 °C (dec.)
CC(C)C1=C(C#N)C(c2cccc(C#N)c2Br)c2c[nH]nc2N1 (centres unmarked) [Example 260, 4-(2-Bromo-3-cyanophenyl)-5-cyano-4,7-dihydro-6-isopropyl-2H-pyrazolo[3,4-b]pyridine]	> 250 °C
CC(C)C1=C(C#N)C(c2ccccc2[N+](=O)[O-])c2c[nH]nc2N1 (centres unmarked) [Example 262, 5-Cyano-4,7-dihydro-6-isopropyl-4-(2-nitrophenyl)-2H-pyrazolo[3,4-b]pyridine]	224 °C
CC(C)C1=C(C#N)C(c2cccc(Cl)c2Cl)c2c[nH]nc2N1 (centres unmarked) [Example 263, 5-Cyano-4-(2,3-dichlorophenyl)-4,7-dihydro-6-isopropyl-2H-pyrazolo[3,4-b]pyridine]	> 250 °C
CC(C)C1=C(C#N)C(c2cccc3nonc23)c2c[nH]nc2N1 (centres unmarked) [Example 264, 4-(2,1,3-Benzoxadiazol-4-yl)-5-cyano-4,7-dihydro-6-isopropyl-2H-pyrazolo[3,4-b]pyridine]	222 to 223 °C (dec.)
COc1ccccc1C1C(C#N)=C(C(C)C)Nc2n[nH]cc21 (centres unmarked) [Example 265, 5-Cyano-4,7-dihydro-6-isopropyl-4-(2-methoxyphenyl)-2H-pyrazolo[3,4-b]pyridine]	> 250 °C
N#CC1=C(C2CC2)Nc2n[nH]cc2C1c1ccccc1Cl (centres unmarked) [Example 266, 4-(2-Chlorophenyl)-5-cyano-6-cyclopropyl-4,7-dihydro-2H-pyrazolo[3,4-b]pyridine]	> 250 °C
N#CC1=C(C2CC2)Nc2n[nH]cc2C1c1ccccc1Br (centres unmarked) [Example 267, 4-(2-Bromophenyl)-5-cyano-6-cyclopropyl-4,7-dihydro-2H-pyrazolo[3,4-b]pyridine]	> 250 °C
N#CC1=C(C2CC2)Nc2n[nH]cc2C1c1cccc2nonc12 (centres unmarked) [Example 269, 4-(2,1,3-Benzoxadiazol-4-yl)-5-cyano-6-cyclopropyl-4,7-dihydro-2H-pyrazolo[3,4-b]pyridine]	200 to 201 °C (dec.)
N#CC1=C(C2CC2)Nc2n[nH]cc2C1c1ccccc1[N+](=O)[O-] (centres unmarked) [Example 272, 5-Cyano-6-cyclopropyl-4,7-dihydro-4-(2-nitrophenyl)-2H-pyrazolo[3,4-b]pyridine]	236 to 238 °C (dec.)
N#CC1=C(c2cccs2)Nc2n[nH]cc2C1c1cccc(C#N)c1Br (centres unmarked) [Example 278, 4-(2-Bromo-3-cyanophenyl)-5-cyano-4,7-dihydro-6-(thiophen-2-yl)-2H-pyrazolo[3,4-b]pyridine]	> 280 °C
CCCC1=C(C#N)C(c2ccccc2Cl)c2cnn(C(=O)OC(C)(C)C)c2N1 (centres unmarked) [Example 281, 1-tert-Butoxycarbonyl-4-(2-chlorophenyl)-5-cyano-4,7-dihydro-6-propyl-1 H-pyrazolo[3,4-b]pyridine]	98 to 102 °C
CCCC1=C(C#N)C(c2ccccc2Cl)c2cn(C(=O)OC(C)(C)C)nc2N1 (centres unmarked) [Example 282, 2-tert-Butoxycarbonyl-4-(2-chlorophenyl)-5-cyano-4,7-dihydro-6-propyl-2H-pyrazolo[3,4-b]pyridine]	175 °C (dec.)
